Data as given in US20230331762A1, “CRYSTALLINE FORM OF ASPACYTARABINE” (Biosight Ltd., priority 2020, published 2023).
“Also recorded” adds a separate entry of the source. Like-named read-outs stand apart in the source and are kept apart here.

Columns and labels:
Type in all cases: physicochemical
[1] = Solubility in water
[2] = Solubility in organic solvents
[3] = Thermodynamic stability of the solid form; conditions: crystalline vs amorphous
[4] = Decomposition in solvents

Row | SMILES | solubility in water [1] | solubility in water ([1]; result in words) | solubility in DCM ([2]; DCM) | solubility in EtOH ([2]; EtOH) | solubility in MeOH ([2]; MeOH) | solubility in NMP ([2]; NMP) | solubility in THF ([2]; THF) | solubility in an amide solvent ([2]; amide solvent) | solubility in ethyl acetate ([2]; ethyl acetate) | solubility in most organic solvents ([2]; most organic solvents) | solubility in toluene ([2]; toluene) | thermodynamic stability [3] | decomposition in DMF ([4]; strong polar aprotic solvent DMF) | decomposition in DMSO ([4]; strong polar aprotic solvent DMSO) | decomposition in water ([4]; water, rate is determined by heat and time)
1 | N[C@@H](CC(=O)Nc1ccn([C@@H]2O[C@H](CO)[C@@H](O)[C@@H]2O)c(=O)n1)C(=O)O [Form B, (S)-2-amino-4-((1-((2R,3S,4S,5R)-3,4-dihydroxy-5-(hydroxymethyl)tetrahydrofuran-2-yl)-2-oxo-1,2-dihydropyrimidin-4-yl)amino)-4-oxobutanoic acid] | up to 2% | insoluble; also recorded: not soluble | not soluble | not soluble | not soluble | soluble | not soluble | soluble | not soluble | non soluble; also recorded: insoluble; also recorded: not soluble | not soluble | thermodynamically more stable than the amorphous form | – | – | –
2 | Cl.N[C@@H](CC(=O)Nc1ccn([C@@H]2O[C@H](CO)[C@@H](O)[C@@H]2O)c(=O)n1)C(=O)O [aspacytarabine-HCl] | – | – | – | – | – | – | – | – | – | – | – | – | decompose | decompose | decompose
